In patent US9259420B2, “Tetrandrine pharmaceutical formulations” (CBA Pharma, Inc., priority 2012, dated 2016):

What was measured:
[1] = dissolution in water when preparing the liquid dosing formulation; type: physicochemical; conditions: for 200 mg/kg dosing preparation
Protocol: Thus three animals were administered 200 mg/kg of each the acid and base formulations in liquid or suspension, respectively, to determine if the dosing and/or variability would improve. […] The solution, and suspension were prepared in water with 0.25% carboxymethylcellulose to facilitate fluidity during dosing. Samples were collected at 30 minutes, 1, 2, 5 and 24 hours after administration of […].

[2] = bioequivalence study in rats: d-tetrandrine plasma concentration after oral gavage of free base versus hydrochloride salt (HPLC); type: in vivo, Sprague-Dawley rats
Protocol: A bioequivalence study in rats was conducted to compare the rate and extent to which the active drug ingredient (d-tetrandrine) is absorbed from a free base versus a hydrochloride salt. The drug ingredients were formulated in capsules by the University of Kentucky Center for Pharmaceutical Sciences and Technology (CPST) to administer equivalent amounts of d-tetrandrine to rats via oral gavage. Dosing syringes, capsule filling apparatus and mini capsules (size 9) appropriate for dosing rats were obtained from Torpac (Fairfield, N.J.).
A single rat per time point (destructive sampling) was used to obtain as much blood volume as possible for the HPLC analysis. This was necessary to accommodate analysis with the current UV based HPLC assay that had extensively been used at CBA Pharma. The JPLC analyses were performed at the CBA Pharma facilities, by a scientist with extensive experience in plasma based assay. Results were provided to a second scientist for evaluation and modeling.
Given the limited information on rat d-tetrandrine pharmacokinetics (PK), the studies were conducted in stages. A preliminary study (pilot) to identify the dose required for adequate assay sensitivity was first conducted using approximately 25 mg/kg and approximately 120 mg/kg doses administered in capsules. Four animals per dose level per formulation (acid or base) were administered drug. Sprague-Dawley rats were used for these studies and were obtained from Harlan Laboratories at least one weak prior to the experiments to allow animals to recover from shipping stress and to acclimate. Animals weighed 200-250 g at the time of the experiments. Animals were euthanized one hour after drug administration and blood was collected in EDTA containing tubes via cardiac puncture and rapidly centrifuged to separate the plasma. Typically, enough plasma was obtained to afford duplicate sample analysis. The plasma was stored at −80° C. until it was transported to CBA Pharma facilities in Styrofoam containers containing dry ice.
However, multiple capsules required for dosing higher doses were contributing to the pharmacokinetic variability observed in initial pilot studies. Thus in subsequent studies, younger and smaller animals were administered doses of approximately 150 mg/kg, and blood samples were obtained two hours after drug administration. These smaller animals were more difficult to dose because the size of the tablet. Three animals from the “acid” group and two animals from the “base” group were excluded based on the technician's judgment that some tissue damage had been done to the animals during the gavage dosing. […]
In some cases the plasma concentrations could not be determined due to extremely high interfering peaks. […]

Question: For `COc1ccc2cc1Oc1ccc(cc1)C[C@H]1c3cc(c(OC)cc3CCN1C)Oc1c(OC)c(OC)cc3c1[C@H](C2)N(C)CC3` [d-tetrandrine], which solubility in water [1] is on record?
Answer: Its solubility in water is “did not dissolve in water”.

Question: What about the “rate of absorption into the bloodstream, free base versus di-acid salt” value ([2]; free base formulations compared with di-acid salt formulations) of the same compound?
Answer: The value was “substantially as rapidly as formulations of the di-acid salt”.

Question: What about the “d-tetrandrine plasma concentrations relative to the limit of the HPLC assay” value ([2]; rats, 100 mg/kg, liquid/suspension, oral gavage, sampled up to 48 hours, FIG. 4) of the same compound?
Answer: Its value is “well above the qualification limit of the HPLC assay for 48 hours”.

Question: What about the “AUC estimates (Bailer method), acid versus base formulation” value ([2]; rats, 100 mg/kg, oral gavage, p>0.05, FIG. 6) of the same compound?
Answer: Its value is “no statistical or otherwise significant difference”.

Question: And the “plasma concentrations and dose normalized plasma concentrations, comparison of d-tetrandrine and d-tetrandrine-2HCl formulations” value ([2]; rats, higher dose (approximately 230 mg/kg capsules, 200 mg/kg liquid/suspension), oral gavage, Student t-test, two-tailed, p>0.05, FIG. 2)?
Answer: Its value is “no statistical difference”.
